The text below walks through data of patent US20220235343A1, “NOVEL ADP-RIBOSYL CYCLASE AND INHIBITOR THEREOF” (INDUSTRIAL COOPERATION FOUNDATION CHONBUK NATIONAL …, priority 2019, published 2022).

Format in all cases: in vivo
The subject of assay [1] is diabetic renal disease mouse model (STZ, C57BL/6J mice). Description: Blood glucose, kidney-to-body weight ratio, creatinine clearance rate and urine albumin level in STZ renal disease mouse model. The note with it: STZ+DCQA group vs STZ, DCQA 9 μg/mL 100 μL intraperitoneally every day for 6 weeks. The protocol: The blood glucose, kidney-to-body weight ratio, creatinine clearance rate and urine albumin level in a renal disease mouse model were measured by the method reported by Kim S Y et al. [Kim S Y, Park K H, Gul R, Jang K Y, Kim U H. Am. J. Physiol. Renal Physiol. 296: F291-F297, 2009]
Specifically, 0.2 mL of 50 mM citrate buffer (pH 4.8) (control group and DCQA group) or 200 μL of 5 mg/mL streptozotocin (STZ, Sigma-Aldrich (USA)) dissolved in 50 mM citrate buffer (STZ group and STZ+DCQA group) was intraperitoneally injected to C57BL/6J mice. Blood glucose was measured from day 2 after the STZ injection and the mice whose blood glucose level was 300 mg/dL were divided into an STZ group and an STZ+DCQA group. […] On the last day, the mouse was put in a metabolic cage and urine was collected for 24 hours.
Then, the body weight and blood glucose of the mouse were measured (FIG. 6A). In addition, in order to investigate the possibility as a therapeutic agent for a renal disease, the mouse was sacrificed and serum and kidney were taken. After measuring kidney-to-body weight ratio (FIG. 6B), some of the kidney was fixed in 10% formalin for fluorescent staining and H&E staining, and the remainder was subjected to ADPR cyclase activity and cADPR concentration measurement. Creatinine clearance rate was calculated by measuring the creatinine levels in urine and serum using a creatinine assay kit (Bioassay Systems, USA) (FIG. 6C), and urine albumin level was measured using an albumin assay kit (Bioassay Systems, USA) (FIG. 6D).

The test system of assay [2] is ADPRC activity and cADPR concentration in kidney tissue. Description: ADPRC activity and cADPR concentration in kidney tissue of renal disease mouse model. To be noted: STZ mice, DCQA i.p. every day for 6 weeks. The protocol: The ADPRC activity and cADPR concentration in the kidney tissue of a renal disease mouse model were measured by the method reported by Kim S Y et al. [Kim S Y, Park K H, Gul R, Jang K Y, Kim U H. Am. J. Physiol. Renal Physiol. 296: F291-F297, 2009]
Specifically, 0.2 mL of 50 mM citrate buffer (pH 4.8) (control group and DCQA group) or 200 μL of 5 mg/mL streptozotocin (STZ, Sigma-Aldrich (USA)) dissolved in 50 mM citrate buffer (STZ group and STZ+DCQA group) was intraperitoneally injected to C57BL/6J mice. Blood glucose was measured from day 2 after the STZ injection and the mice whose blood glucose level was 300 mg/dL were divided into an STZ group and an STZ+DCQA group. […] In order to investigate the possibility as a therapeutic agent for a renal disease, the mouse was sacrificed and serum and kidney were taken.
After lysing some of the kidney tissue with a lysis buffer, 45 μL of the lysed sample was treated with 5 μL of 2 mM NGD (nicotinamide guanine dinucleotide) and reacted at 37° C. for 1 hour. Then, the enzyme-substrate reaction was stopped by treating with 50 μL of 10% trichloroacetic acid. After centrifuging for 10 minutes and adding 80 μL of the supernatant to 720 μL of a 0.1 M sodium phosphate buffer, absorbance was measured at 297 nm (excitation) and 410 nm (emission) with a fluorescence spectrometer (Hitachi, Japan). […]

The subject of assay [3] is kidney tissue of diabetic renal disease mouse model. The assay can be described thus: Histopathological change in kidney tissue of renal disease mouse model (H&E staining). The note with it: STZ mice, DCQA i.p. every day for 6 weeks, FIG. 9. The protocol: The histopathological change in the kidney tissue of a renal disease mouse model was measured by the method reported by Shu B et al. [Shu B, Feng Y, Gui Y, Lu Q, Wei W, Xue X, Sun X, He W, Yang J, Dai C. Cell. Signal. 42:249-258, 2018]
Specifically, 0.2 mL of 50 mM citrate buffer (pH 4.8) (control group and DCQA group) or 200 μL of 5 mg/mL streptozotocin (STZ, Sigma-Aldrich (USA)) dissolved in 50 mM citrate buffer (STZ group and STZ+DCQA group) was intraperitoneally injected to C57BL/6J mice. Blood glucose was measured from day 2 after the STZ injection and the mice whose blood glucose level was 300 mg/dL were divided into an STZ group and an STZ+DCQA group. […] In order to investigate the possibility as a therapeutic agent for a renal disease, the mouse was sacrificed and serum and kidney were taken. Some of the extracted kidney was fixed in 10% formalin. The kidney tissue fixed in 10% formalin was cut into kidney tissue sections on a slide glass using a cryostat microtome. The kidney tissue sections were washed with running water for 5 minutes and then stained with hematoxylin for 5 minutes. After the staining, the tissue was washed with running water for 5 minutes. Then, the tissue was immersed in 157 mM hydrochloric acid 2 times and taken out quickly. Then, the tissue was immersed once in 0.25% ammonia water and taken out quickly. After washing again with running water for 5 minutes and staining with eosin for about 30 seconds, the tissue was reacted with 70% ethanol for 30 seconds, with 80% ethanol for 30 seconds, with 90% ethanol for 30 seconds, with 100% ethanol for 30 seconds, again with 100% ethanol for 30 seconds, and then again with 100% ethanol for 30 seconds. Finally, after reacting with xylene for 5 minutes and again with xylene for 5 minutes or longer, a cover glass was attached using a mounting solution.

For the compound `O=C(/C=C/c1ccc(O)c(O)c1)OC1[C@H](O)CC(OC(=O)/C=C/c2ccc(O)c(O)c2)(C(=O)O)C[C@H]1O` (stereo partly drawn) [DCQA, 1,4-dicaffeoylquinic acid], the blood glucose entry in assay [1] (FIG. 6A) was “did not show decreased in blood glucose”. In assay [1] (FIG. 6B), the “kidney to body weight” value is “significant decrease in kidney to body weight”. In assay [1] (FIG. 6C), the creatinine clearance rate entry is “significant increase in creatinine clearance rate”. For the same compound, in assay [1] (FIG. 6D), the urine albumin level entry is reported as “significant decrease in the urine albumin level”. Moreover, in assay [2] (FIG. 7B), the “cADPR concentration in kidney tissue” value is given as “decreased the cADPR concentration increased by STZ to the level of the control group”. Besides, the “ADP-ribosyl cyclase activity in kidney tissue” value in assay [2] (NGD substrate, FIG. 7A) was “decreased the ADP-ribosyl cyclase activity increased by STZ to the level of the control group”. Further, in assay [3], the “formation of transitional epithelial cells increased by STZ, recovered by DCQA” value was “to a level similar to that of the control group”; the “glomerulus hypertrophy increased by STZ, recovered by DCQA” value is “to a level similar to that of the control group”; the “infiltration of inflammatory cells increased by STZ, recovered by DCQA” value is recorded as “to a level similar to that of the control group”.
